For data set [1], the system named is Aspergillus flavus.
Data set [2] concerns Aspergillus parasiticus.

Take `OC(Cc1ccccc1Cl)(Cn1nc[nH]c1=S)C1(Cl)CC1` (centres unmarked) [Prothioconazole]: the “Aflatoxin B1 [ppb]” value in data set [1] worked out at 865 ppb; in data set [2], 37785 ppb.
For `CON=C(C(=O)OC)c1ccccc1CON=C(C)c1cccc(C(F)(F)F)c1` [Trifloxystrobin], in that order: 375 ppb and 9775 ppb.
On to `N#Cc1c[nH]cc1-c1cccc2c1OC(F)(F)O2` [Fludioxonil], for which the entries for the “Aflatoxin B1 [ppb]” value in data set [1] and in data set [2] were 1230 ppb and 17390 ppb, respectively.
For `CC(C)(C)C(O)(CCc1ccc(Cl)cc1)Cn1cncn1` (centres unmarked) [Tebuconazole], in that order: 2445 ppb and 4545 ppb.

Source of the values: US20110105577A1 (priority 2007, published 2011).
